Substitutions are numbered along the chain they refer to.
What was measured:
wild type PEPCK-C = target: T1, wild type PEPCK-C (Sus scrofa, UniProt A0A4X1UM84); experiment: IC50 determination, PEPCK-C activity in the direction of OAA synthesis (coupled spectrophotometric assay with malate dehydrogenase); type: biochemical, pig; conditions: saturating substrate concentration
T1 construct: made in house; host or cells: Escherichia coli BL21 (DE3)
T1 sequence (A0A4X1UM84 1-622): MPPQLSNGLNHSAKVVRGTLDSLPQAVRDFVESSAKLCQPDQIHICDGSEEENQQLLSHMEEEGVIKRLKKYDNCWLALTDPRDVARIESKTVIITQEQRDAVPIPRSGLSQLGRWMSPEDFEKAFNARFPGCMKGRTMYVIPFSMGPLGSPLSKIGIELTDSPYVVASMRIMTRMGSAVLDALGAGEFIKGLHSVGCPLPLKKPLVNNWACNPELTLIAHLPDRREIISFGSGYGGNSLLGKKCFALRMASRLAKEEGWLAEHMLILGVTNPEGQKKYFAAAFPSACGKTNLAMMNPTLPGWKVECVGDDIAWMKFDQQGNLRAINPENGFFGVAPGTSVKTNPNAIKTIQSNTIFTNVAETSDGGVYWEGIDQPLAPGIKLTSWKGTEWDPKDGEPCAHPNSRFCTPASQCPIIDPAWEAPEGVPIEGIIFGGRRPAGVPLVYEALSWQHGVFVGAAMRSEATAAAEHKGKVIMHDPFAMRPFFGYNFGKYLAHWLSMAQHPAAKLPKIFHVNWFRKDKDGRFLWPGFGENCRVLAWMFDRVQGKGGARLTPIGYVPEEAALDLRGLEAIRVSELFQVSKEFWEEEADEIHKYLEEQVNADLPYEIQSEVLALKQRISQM
Protocol: PEPCK-C activity was measured in an UNICAM 500 spectrometer (UNICAM Analytical Systems, UK) with coupled spectrophotometric assays using pyruvate kinase and lactate dehydrogenase as auxiliary enzymes in PEP synthesis reaction and malate dehydrogenase in the reverse reaction.
Variable inhibitor concentrations of 0–200 μM were also used. Assays were initiated by PEPCK-C addition. Rates were calculated by measuring the decreasing slope of absorbance at 340 nm after subtracting the rate of spontaneous NADH oxidation.
3-MP inhibition assays were fitted in double reciprocal plots. To describe the mixed non-competitive inhibition, the double reciprocal equation can be written as: 1/v = Km/Vmax (1+[I]/Ki) 1/[S]+1/Vmax (1+[I]/αKi) (2)

PEPCK-C 139Leu = target: T2, PEPCK-C 139Leu (Sus scrofa, UniProt A0A4X1UM84, M139L); experiment: Near-UV circular dichroism spectra; type: binding, pig; conditions: 50 μM compound, 20 μM PEPCK-C (compound 1 also 150 μM, data not shown)
T2 construct: made in house; host or cells: Escherichia coli BL21 (DE3)
T2 sequence (A0A4X1UM84 1-622 M139L): T1 sequence (A0A4X1UM84 1-622) with M139L
Protocol: (§1) PEPCK-C was diluted to 20 μM in a 20 mM HEPES pH 7.4 buffer, containing 1 mM TCEP. 50 μM 3-MP, compound 1 or compound 2 were added to the PEPCK-C solution. Readings were performed at 25°C in a 0.1 cm cuvette from 320 to 250 nm in a Chirascan CD-spectrophotometer (Applied Photophysics, UK). CD spectra were calculated after subtracting the blank which contained all the components except PEPCK-C.

PEPCK-C 139Met [1] = target: T3, PEPCK-C 139Met (Sus scrofa, UniProt A0A4X1UM84); experiment: Near-UV circular dichroism spectra; type: binding, pig; design: His-tag (cleaved yes); made in house; host or cells: Escherichia coli BL21 (DE3); conditions: 50 μM compound, 20 μM PEPCK-C (compound 1 also 150 μM, data not shown)
T3 sequence (A0A4X1UM84 1-622): T1 sequence (A0A4X1UM84 1-622)
Protocol: as §1

PEPCK-C 139Met [2] = experiment: Thermal-shift screening of chemical library (ANS fluorescence); type: binding, pig; conditions: 25 μM compound, 4 μM PEPCK-C
Protocol: PEPCK-C effectors were identified from a chemical library using a screening procedure based on a thermal-shift assay. Potential protein effector compounds were dispensed into 96-well microplates. Each well contained 4 μM PEPCK-C in a 20 mM HEPES buffer pH 7.4, plus 1 mM TCEP, 100 μM ANS, 10% DMSO and either 1 or 5 chemical library compounds, each at a 25 μM concentration. […] 50 μL of mineral oil were added to each well to prevent evaporation. In a first screening round, 5 different compounds were present in each well. The binding of effectors to PEPCK-C was assessed by monitoring the thermal denaturation of the enzyme and identifying compounds inducing a stabilizing effect (increase in the unfolding temperature, Tm, compared to the free enzyme) in a FluoDia T70 High Temperature Fluorescence Microplate Reader (Photon Technology International, UK). To obtain Tm values, unfolding curves were fitted to Boltzmann function (Eq 1) using OriginPro 9.1 software. y(T) = A1−A2/1+exp(T−Tm/S)+A2 (1) where A1 and A2 are the asymptotic values of the signal in the pre- and post-transition region of the unfolding curve, respectively, and S is a parameter associated with the slope of the unfolding curve at the Tm and related to the unfolding enthalpy of the enzyme. […] In a second round, the compounds present in the positive wells were individually analyzed to identify the binders.

[3] = tested on: pyruvate kinase and lactate dehydrogenase; experiment: Inhibition of auxiliary enzymes; type: biochemical; conditions: 25–200 μM compound; data not shown
From the text: Reactions were initiated by addition of 0.5 units of each pyruvate kinase and lactate dehydrogenase.

[4] = Solubility / precipitation in the enzymatic assay; type: physicochemical
Protocol: Assays to calculate IC50 values were performed in the direction of OAA synthesis in 1 mL of a 100 mM HEPES buffer pH 7.4, containing 10 mM DTT, 0.2 mM MnCl2, 2 mM MgCl2, 2 mM GDP, 0.2 mM NADH, 2 mM PEP, 100 mM KHCO3 and 4 units of malate dehydrogenase. Variable inhibitor concentrations of 0–200 μM were also used. Assays were initiated by PEPCK-C addition. Rates were calculated by measuring the decreasing slope of absorbance at 340 nm after subtracting the rate of spontaneous NADH oxidation.

IC50 (wild type PEPCK-C) [µM] | Inhibition of / interaction with auxiliary enzymes [3] | Solubility (in words) [4] | Compound | Change of near-UV CD spectrum of the enzyme (PEPCK-C 139Leu) | Change of near-UV CD spectrum of the enzyme (PEPCK-C 139Met [1]) | Increase in Tm compared with controls (PEPCK-C 139Met [2])
65 ± 6 |  |  | O=C(O)c1ncccc1S [3-MP, 3-mercaptopicolinic acid] | modify the CD spectra of both isoenzymes | modify the CD spectra of both isoenzymes | 
30 ± 2 | slight interaction | poor solubility | Cn1nc(-c2ccc(C=NNC(=O)c3ccc(Cl)cc3Cl)s2)cc1C(F)(F)F [compound 2, N'1-({5-[1-methyl-5-(trifluoromethyl)-1H-pyrazol-3-yl]-2-thienyl}methylidene)-2,4-dichlorobenzene-1-carbohydrazide] | more markedly compound 2 modify the CD spectra of both isoenzymes | more markedly compound 2 modify the CD spectra of both isoenzymes | around 8 °C
134 ± 4 | slight inhibition | poor solubility | CC(=NNC(=S)NC1CCCCC1)c1sc(-c2cccs2)nc1C [compound 1, N1-cyclohexyl-2-{1-[4-methyl-2-(2-thienyl)-1,3-thiazol-5-yl]ethylidene}hydrazine-1-carbothiamide] | no clear differences in the enzyme CD spectra | no clear differences in the enzyme CD spectra | around 8 °C

From article PMC4938538, “Inhibition of Pig Phosphoenolpyruvate Carboxykinase Isoenzymes by 3-Mercaptopicolinic Acid and Novel Inhibitors” (PLoS ONE, 2016)
